Experimental data published in the Deep4Chem optical property database.
Values belong to the molecule of their own block, whether it stands above or below them.

Assay: solvent given as SMILES

emission maximum (in ClC(Cl)Cl): 702 nm
SMILES: CCOC(=O)/C(C)=C/C1=C(c2ccc(C)cc2)C2=Nc3c(-c4ccc(C)cc4)c(Br)c(-c4ccc(C)cc4)n3[B-](F)(F)[N+]2=C1c1ccc(C)cc1

emission maximum (in CN(C)C=O): 569 nm | emission maximum (in CS(C)=O): 589 nm | emission maximum (in ClC(Cl)Cl): 538 nm
SMILES: CCCCCCCCC1(CCCCCCCC)c2cc(-c3ccc([N+](=O)[O-])cc3)ccc2-c2ccc(-c3ccc([N+](=O)[O-])cc3)cc21

emission maximum (in ClCCl): 667 nm
SMILES: CC(C)[Si](C#Cc1c2cc3ccccc3cc2c(C#Cc2ccc(C(F)(F)F)cc2)c2cc3ccccc3cc12)(C(C)C)C(C)C

emission maximum (in ClC(Cl)Cl): 413 nm
SMILES: C(#Cc1ccccc1)C(C#Cc1ccccc1)=Cc1cccc(C=C(C#Cc2ccccc2)C#Cc2ccccc2)c1

SMILES: CC(C)CCC[C@@H](C)[C@H]1CC[C@H]2[C@@H]3CC=C4C[C@@H](OC(=O)Oc5cc(/C=C/C=C/c6ccc(N(C)C)cc6)ccc5[N+](=O)[O-])CC[C@]4(C)[C@H]3CC[C@]12C
emission maximum (in C1CCCCC1): 505 nm | emission maximum (in C1CCOC1): 677 nm | emission maximum (in C1COCCO1): 620 nm | emission maximum (in CCCCCCC): 502 nm | emission maximum (in Cc1ccccc1): 595 nm

emission maximum (in ClCCl): 563 nm | emission maximum (in c1ccccc1): 508 nm
SMILES: CCCCN(CCCC)c1ccc(C#Cc2cc(C#Cc3ccc(C#N)cc3)c(C#Cc3ccc(C#N)cc3)cc2C#Cc2ccc(N(CCCC)CCCC)cc2)cc1

emission maximum (in CC#N): 391 nm
SMILES: COc1ccc2c(c1)nc(-c1ccccc1)n2-c1ccccc1

SMILES: CC1(C)c2ccccc2N(c2ccc3c(c2)c2ccccc2n2c4ccccc4nc32)c2ccccc21
emission maximum (in Cc1ccccc1): 437 nm | emission maximum (in O=P(c1ccccc1)(c1ccccc1)c1ccccc1Oc1ccccc1P(=O)(c1ccccc1)c1ccccc1): 447.06 nm

SMILES: O=[N+]([O-])c1ccc(/C2=C3N=C(C(c4ccccc4)=C/3c3ccccc3)/C(c3ccc([N+](=O)[O-])cc3)=c3\[nH]/c(c(-c4ccccc4)c3-c3ccccc3)=C(/c3ccc([N+](=O)[O-])cc3)C3=N/C(=C(/c4ccc([N+](=O)[O-])cc4)c4[nH]c2c(-c2ccccc2)c4-c2ccccc2)C(c2ccccc2)=C3c2ccccc2)cc1
emission maximum (in ClCCl): 745 nm

emission maximum (in ClCCl): 468 nm
SMILES: c1ccc(-n2nc(-c3ccc(N4c5ccccc5Sc5ccccc54)cc3)nc2-c2ccccn2)cc1

emission maximum (in CS(C)=O): 510 nm
SMILES: CCOC(=O)C1=C(N)n2c(=O)c3ccccc3c(=O)n2C1c1ccc([N+](=O)[O-])cc1 (configuration not stated)

emission maximum (in CS(C)=O): 421 nm | emission maximum (in O): 431 nm
SMILES: CCCCCn1c2ccc(S(=O)(=O)O)cc2c(=O)c2cc(S(=O)(=O)O)ccc21

emission maximum (in CCOC(C)=O): 404 nm
SMILES: CCn1c(-c2ccc(OC)cc2)c(-c2ccc3ccccc3c2)c(-c2ccc3ccccc3c2)c1-c1ccc(OC)cc1

emission maximum (in O): 318 nm
SMILES: [NH3+]C(Cc1ccc(O)c(O)c1)C(=O)[O-] (configuration not stated)

emission maximum (in C1CCOC1): 403 nm
SMILES: CCCCC1(CCCC)c2cc(C#Cc3ccc(/C=C(\C)c4ccccc4)cc3)ccc2-c2ccc(C#Cc3ccc(/C=C(\C)c4ccccc4)cc3)cc21

SMILES: CC(C)(C)c1ccc2c(c1)Sc1cc(C(C)(C)C)ccc1N2c1ccc2c(ccc3nc4ccc5cc(N6c7ccc(C(C)(C)C)cc7Sc7cc(C(C)(C)C)ccc76)ccc5c4nc32)c1
emission maximum (in C1CCCCC1): 575 nm | emission maximum (in Cc1ccccc1): 682 nm

SMILES: O=P1(c2ccccc2)C(c2cc(C(F)(F)F)cc(C(F)(F)F)c2)=Cc2c3ccc4cccc5ccc(c6cc(-c7ccc(N(c8ccccc8)c8ccccc8)cc7)n1c26)c3c45 (configuration not stated)
emission maximum (in C1CCCCC1): 558 nm | emission maximum (in C1CCOC1): 620 nm | emission maximum (in C1COCCO1): 595 nm | emission maximum (in CC#N): 645 nm | emission maximum (in CC(C)=O): 635 nm | emission maximum (in CO): 636 nm | emission maximum (in Cc1ccccc1): 586 nm | emission maximum (in ClC(Cl)Cl): 603 nm | emission maximum (in ClCCl): 622 nm

emission maximum (in CCCCCCC): 482 nm
SMILES: c1ccc2c3c(ccc2c1)-c1cccc2c1c-3cc1ccccc12

emission maximum (in C1CCCCC1): 454 nm | emission maximum (in CC#N): 517 nm
SMILES: CC(C)c1ccc(/C=C/c2nc3ccc(N(C)C)cc3s2)cc1

emission maximum (in CCO): 441 nm | emission maximum (in ClCCl): 414 nm
SMILES: c1ccc(-c2c3ccccc3c(-c3cncnc3)c3ccccc23)cc1

emission maximum (in ClC(Cl)Cl): 681 nm
SMILES: CCOC(=O)c1ccc(/C=C/C2=[N+]3C(=C(c4ccccc4)c4ccc(/C=C/c5ccc(C(=O)OCC)o5)n4[B-]3(F)F)C=C2)o1

SMILES: Nc1ccc(-c2ccc3c(c2)C(=O)c2ccccc2C3=O)cc1
emission maximum (in CCCCCC): 512 nm | emission maximum (in CCOCC): 643 nm | emission maximum (in Cc1ccccc1): 599 nm | emission maximum (in ClC(Cl)(Cl)Cl): 562 nm | emission maximum (in ClCCl): 695 nm

SMILES: COc1ccc(N(c2ccccc2)c2cc3ccc4cc(N(c5ccccc5)c5ccc(OC)cc5)cc5ccc(c2)c3c45)cc1
emission maximum (in Cc1ccccc1): 482 nm

emission maximum (in O): 662 nm
SMILES: Cc1ccc(N(C)C)cc1C1=C2C=CC(=[N+](C)C)C=C2[Si](C)(C)c2cc(N(C)C)ccc21

SMILES: COc1ccc(/C=C/C2=[O+][B-](F)(F)OC(/C=C/c3ccc(OC)c4ccccc34)=C2c2ccccc2)c2ccccc12
emission maximum (in CC#N): 649 nm | emission maximum (in CC(C)=O): 631 nm | emission maximum (in CCOC(C)=O): 603 nm | emission maximum (in CCOCC): 583 nm | emission maximum (in ClC(Cl)(Cl)Cl): 577 nm | emission maximum (in ClCCl): 633 nm

SMILES: N#Cc1c(-n2c3ccc(Br)cc3c3cc(Br)ccc32)c(-n2c3ccc(Br)cc3c3cc(Br)ccc32)c(C#N)c(-n2c3ccc(Br)cc3c3cc(Br)ccc32)c1-n1c2ccc(Br)cc2c2cc(Br)ccc21
emission maximum (in Cc1ccccc1): 546 nm

emission maximum (in ClC(Cl)Cl): 457 nm
SMILES: COc1ccc(-c2nc(-c3ccccc3)c(N(c3ccccc3)c3ccccc3)s2)cc1

emission maximum (in ClCCl): 640 nm
SMILES: CN(C)c1ccc(/C=C/c2cnc(/C=C/c3ccc(C#N)cc3)o2)cc1

emission maximum (in ClC(Cl)Cl): 416 nm
SMILES: CCc1cc(CC)cc(-n2c3ccccc3c3cc4c(cc32)c2ccccc2n4-c2cc(CC)cc(CC)c2)c1

emission maximum (in CC#N): 429 nm
SMILES: N#Cc1nn(-c2ccc(Cl)cc2)nc1N1CCCC1

emission maximum (in ClC(Cl)Cl): 728 nm | emission maximum (in ClCCl): 728 nm
SMILES: COc1ccc2cc(C3=[N+]4C(=Nc5c(-c6ccccc6)cc(-c6ccc7cc(OC)ccc7c6)n5[B-]4(F)F)C(c4ccccc4)=C3Br)ccc2c1

emission maximum (in CS(C)=O): 412 nm
SMILES: COc1cccc(-c2nc3sc4ccccc4c3s2)c1

SMILES: Cc1cc(C)c(-c2nnc(-c3ccc(-n4c5ccccc5c5ccccc54)cc3)o2)c(C)c1
emission maximum (in CCO): 435 nm | emission maximum (in Cc1ccccc1): 379 nm

emission maximum (in c1ccccc1): 480 nm
SMILES: Nc1ccc2nc(-c3ccccc3)c(=O)oc2c1

emission maximum (in CC#N): 397 nm
SMILES: c1ccc(-c2nc3cc4c(cc3n2-c2ccccc2)nc(-c2ccccc2)n4-c2ccccc2)cc1

emission maximum (in ClCCl): 408 nm
SMILES: c1ccc2c(c1)-c1ccccc1[Si]21c2ccccc2-c2cc3c(cc21)-c1ccccc1[Si]31c2ccccc2-c2ccccc21

emission maximum (in ClCCl): 385 nm
SMILES: C(=C\c1ccc(-c2ccccc2)cc1)/c1ccc(Oc2ccc3ccccc3c2-c2c(Oc3ccc(/C=C/c4ccc(-c5ccccc5)cc4)cc3)ccc3ccccc23)cc1

emission maximum (in ClCCl): 403 nm
SMILES: COc1ccc(-c2ccc(-c3cc(-c4ccccn4)nc(-c4ccccn4)c3)cc2)cc1

emission maximum (in CC#N): 491 nm
SMILES: Cc1ccc(C)c2nc3c(=O)[nH]c(=O)[nH]c3nc12

emission maximum (in ClCCl): 648 nm
SMILES: CC1=c2ccccc2=[N+]2C1=Cc1c3ccccc3c(-c3[nH]c4ccccc4c3C)n1[B-]2(F)F

emission maximum (in ClCCl): 385 nm
SMILES: CC(C)(C)NC(=O)c1cccc2ccc3c4cc(F)ccc4c4ccc(F)cc4c3c12

SMILES: CCOC(=O)CN1C(=O)C2=C(c3ccc(C#N)cc3)N(CC(=O)OCC)C(=O)C2=C1c1ccccc1
emission maximum (in CC#N): 538 nm | emission maximum (in CS(C)=O): 547 nm | emission maximum (in Cc1ccccc1): 544 nm

emission maximum (in CCCCCC): 694 nm
SMILES: CC(C)[Si](C#Cc1c2nc3ccccc3nc2c(C#C[Si](C(C)C)(C(C)C)C(C)C)c2nc3ccccc3nc12)(C(C)C)C(C)C

emission maximum (in CN(C)C=O): 419 nm
SMILES: CCN(CC)c1ccc(-c2nc(Oc3ccc(-c4nc5ccccc5s4)cc3)nc(Oc3ccc(-c4nc5ccccc5s4)cc3)n2)cc1

emission maximum (in ClC(Cl)Cl): 517.5 nm
SMILES: CC1=CC(C)=[N+]2C1=C(c1ccc(I)cc1)c1c(C)cc(C)n1[B-]2(Oc1ccccc1)Oc1ccccc1

SMILES: Cc1cc(C)c(B(c2ccc(N3c4ccccc4Oc4ccccc43)cc2)c2c(C)cc(C)cc2C)c(C)c1
emission maximum (in C1CCCCC1): 475.13 nm | emission maximum (in C1CCOC1): 602.56 nm | emission maximum (in CN(C)C=O): 665.64 nm | emission maximum (in Cc1ccccc1): 540 nm | emission maximum (in ClCCl): 598.46 nm

emission maximum (in ClC(Cl)Cl): 484 nm
SMILES: CCCCCCN1C(=O)c2cccc3c(-c4scc5c4OCCO5)ccc(c23)C1=O

emission maximum (in CCO): 654 nm | emission maximum (in CS(C)=O): 655 nm | emission maximum (in O): 722 nm
SMILES: CC1(C)C(/C=C/C=C/c2cc3ccc(O)cc3oc2=O)=[N+](CCCS(=O)(=O)[O-])c2ccc(S(=O)(=O)O)cc21

SMILES: c1ccc(-c2nc(-c3ccccc3)nc(-c3ccc(-n4c5ccccc5c5cc(-c6ccc7oc8ccccc8c7c6)ccc54)cc3)n2)cc1
emission maximum (in CCOC(C)=O): 470 nm | emission maximum (in CN(C)C=O): 526 nm | emission maximum (in Cc1ccccc1): 433 nm

emission maximum (in CC1CCCO1): 472 nm
SMILES: O=c1cc2c(S(=O)(=O)O)c(O)c3cccc4ccc(o1)c2c43

emission maximum (in ClC(Cl)Cl): 446 nm
SMILES: F[B-]1(F)OC(c2cccc(Br)c2)=Cc2c3ccccc3c3ccccc3[n+]21

emission maximum (in C1CCOC1): 468 nm
SMILES: N#C/C(=C\c1ccc(C=C(c2ccccc2)c2ccccc2)cc1)c1ccccc1

emission maximum (in ClC(Cl)Cl): 581 nm
SMILES: N#CC1=CC(/C=C/c2ccccc2)=CC(C#N)=P1(c1ccccc1)c1ccccc1

emission maximum (in ClCCl): 423 nm
SMILES: c1ccc2c(-c3cc4c(ccc5sc(-c6cccc7ccccc67)cc54)s3)cccc2c1

emission maximum (in O): 552 nm
SMILES: COc1ccc(-c2cc(N3CCCCC3)c(C#N)c3c2-c2cccc4cccc-3c24)cc1

emission maximum (in CO): 674 nm | emission maximum (in ClC(Cl)Cl): 699 nm
SMILES: CC[n+]1c(C=C2C(=O)C(C=C3Sc4cc(Cl)ccc4N3C)=C2[O-])[se]c2ccccc21

SMILES: CCn1c2ccccc2c2cc(/C=C/c3cc(/C=C/c4ccc5c(c4)c4ccccc4n5CC)ncn3)ccc21
emission maximum (in C1CCOC1): 463 nm | emission maximum (in CCOC(C)=O): 460 nm | emission maximum (in CN(C)C=O): 500 nm | emission maximum (in Cc1ccccc1): 440 nm | emission maximum (in ClCCl): 492 nm

emission maximum (in ClCCl): 682 nm
SMILES: O=c1c2cccc3cccc(c32)c2nc3cccc4cccc(c43)n12

emission maximum (in ClCCl): 424 nm
SMILES: CC(=O)c1c(N[C@@H](CS)C(=O)O)c2ccc(N(C)C)cc2oc1=O

SMILES: CC1(C)OB(c2cc3ccc4cccc5ccc(c2)c3c45)OC1(C)C
emission maximum (in Cc1ccccc1): 386 nm

emission maximum (in ClCCl): 538 nm
SMILES: c1ccc2c(C3=C(c4cccc5ccccc45)c4cccc5c4c(cc4nc6ccccc6nc45)O3)cccc2c1
